Source: patent US8802597B2, “Herbicidal pyrimidines” (E I du Pont de Nemours and Company, priority 2003, dated 2014)
Like-named read-outs stand apart in the source and are kept apart here.

Assays:
Assay type in all cases: in vivo
[1] = tested on: blackgrass (Alopecurus myosuroides); test: Test B postemergence; details: Alopecurus myosuroides, post-emergence
In short: (§1)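 Following sowing, compounds in a surfactant-bearing non-phytotoxic solvent were applied preemergence; emerged plants 2 to 18 cm high got postemergence treatment concurrently. Evaluation: 13 to 15 days later, greenhouse, 0–100 visual scale.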

wild oat (Avena fatua) = test: Test B postemergence; details: Avena fatua, post-emergence
In short: as §1

[2] = tested on: morningglory (Ipomoea coccinea); test: Test B pre/postemergence; details: Ipomoea; for pest or weed control at 125 g/ha: 125 g ai/ha; for pest or weed control at 500 g/ha: 500 g ai/ha
In short: as §1

[3] = tested on: pigweed (Amaranthus retroflexus); test: Test B pre/postemergence; details: Amaranthus retroflexus; for pest or weed control at 125 g/ha: 125 g ai/ha; for pest or weed control at 500 g/ha: 500 g ai/ha
In short: as §1

[4] = tested on: giant foxtail (Setaria faberii); test: Test B pre/postemergence; details: Setaria faberi; for pest or weed control at 125 g/ha: 125 g ai/ha; for pest or weed control at 500 g/ha: 500 g ai/ha
In short: as §1

[5] = tested on: velvetleaf (Abutilon theophrasti); test: Test B pre/postemergence; details: Abutilon theophrasti; for pest or weed control at 125 g/ha: 125 g ai/ha; for pest or weed control at 500 g/ha: 500 g ai/ha
In short: as §1

[6] = tested on: crabgrass (Digitaria sanguinalis); test: Test B pre/postemergence; details: Digitaria sanguinalis; for pest or weed control at 125 g/ha: 125 g ai/ha; for pest or weed control at 500 g/ha: 500 g ai/ha
In short: as §1

[7] = tested on: wheat (Triticum aestivum); test: Test B pre/postemergence; details: Triticum aestivum; for plant injury at 125 g/ha: 125 g ai/ha; for plant injury at 500 g/ha: 500 g ai/ha
In short: as §1

[8] = tested on: Surinam grass (Brachiaria decumbens); test: Test B pre/postemergence; details: Urochloa decumbens; for pest or weed control at 125 g/ha: 125 g ai/ha; for pest or weed control at 500 g/ha: 500 g ai/ha
In short: as §1

[9] = tested on: barnyardgrass (Echinochloa crus-galli); test: Test B pre/postemergence; details: Echinochloa crus-galli; for pest or weed control at 125 g/ha: 125 g ai/ha; for pest or weed control at 500 g/ha: 500 g ai/ha
In short: as §1

corn (Zea mays) = test: Test B pre/postemergence; details: Zea mays
In short: as §1

[10] = tested on: cocklebur (Xanthium strumarium); test: Test B pre/postemergence; details: Xanthium strumarium; for pest or weed control at 125 g/ha: 125 g ai/ha; for pest or weed control at 500 g/ha: 500 g ai/ha
In short: as §1

[11] = tested on: lambsquarters (Chenopodium album); test: Test B pre/postemergence; details: Chenopodium album; for pest or weed control at 125 g/ha: 125 g ai/ha; for pest or weed control at 500 g/ha: 500 g ai/ha
In short: as §1

rice (Oryza sativa) = test: Test B flooded paddy test; details: Oryza sativa, Flood, 1000 g ai/ha; scale 0 to 100; read-out: Plant response rating, Rice
In short: (§2)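 Plants were grown to the 2-leaf stage before treatment, then kept in a greenhouse for 13 to 15 days. Injury was rated visually against untreated controls on a 0 to 100 scale, where 0 is no effect and 100 is complete control.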

[12] = tested on: umbrella sedge (Cyperus difformis); test: Test B flooded paddy test; details: Cyperus difformis, Flood, 1000 g ai/ha; scale 0 to 100; read-out: Plant response rating, Sedge, Umbrella
In short: as §2

[13] = tested on: duck salad (Heteranthera limosa); test: Test B flooded paddy test; details: Heteranthera limosa, Flood, 1000 g ai/ha; scale 0 to 100; read-out: Plant response rating, Ducksalad
In short: as §2

[14] = tested on: barnyardgrass (Echinochloa crus-galli); test: Test B flooded paddy test; details: Echinochloa crus-galli, Flood, 1000 g ai/ha; scale 0 (no effect) to 100 (complete control); read-out: Plant response rating, Barnyardgrass
In short: as §2

CCOC(=O)c1nc(-c2ccccc2)nc(N)c1Br [Compound 18]
pest or weed control at 125 g/ha ([1]; 125 g ai/ha, scale 0 to 100 (0 no effect, 100 complete control), read-out: Blackgrass plant response rating): 0% | pest or weed control at 500 g/ha ([1]; 500 g ai/ha, scale 0 to 100, read-out: Plant response rating, Blackgrass): 0% | pest or weed control at 125 g/ha (wild oat (Avena fatua); 125 g ai/ha, scale 0 to 100 (0 no effect, 100 complete control), read-out: Oat, Wild plant response rating): 0% | pest or weed control at 500 g/ha (wild oat (Avena fatua); 500 g ai/ha, scale 0 to 100, read-out: Plant response rating, Oat, Wild): 0% | pest or weed control at 125 g/ha ([2]; post-emergence, Postemergence, scale 0 to 100 (0 no effect, 100 complete control), read-out: Morningglory plant response rating): 20% | pest or weed control at 500 g/ha ([2]; post-emergence, Postemergence, scale 0 to 100, read-out: Plant response rating, Morningglory): 70% | pest or weed control at 125 g/ha ([2]; pre-emergence, Preemergence, scale 0 to 100 (0 no effect, 100 complete control), read-out: Plant response rating, Morningglory): 0% | pest or weed control at 500 g/ha ([2]; pre-emergence, Preemergence, scale 0 to 100 (0 no effect, 100 complete control), read-out: Morningglory plant response rating): 0% | pest or weed control at 125 g/ha ([3]; post-emergence, Postemergence, scale 0 to 100 (0 no effect, 100 complete control), read-out: Pigweed plant response rating): 20% | pest or weed control at 500 g/ha ([3]; post-emergence, Postemergence, scale 0 to 100, read-out: Plant response rating, Pigweed): 70% | pest or weed control at 125 g/ha ([3]; pre-emergence, Preemergence, scale 0 to 100 (0 no effect, 100 complete control), read-out: Plant response rating, Pigweed): 0% | pest or weed control at 500 g/ha ([3]; pre-emergence, Preemergence, scale 0 to 100 (0 no effect, 100 complete control), read-out: Pigweed plant response rating): 70% | pest or weed control at 125 g/ha ([4]; post-emergence, Postemergence, scale 0 to 100 (0 no effect, 100 complete control), read-out: Foxtail, Giant plant response rating): 0% | pest or weed control at 500 g/ha ([4]; post-emergence, Postemergence, scale 0 to 100, read-out: Plant response rating, Foxtail, Giant): 0% | pest or weed control at 125 g/ha ([4]; pre-emergence, Preemergence, scale 0 to 100 (0 no effect, 100 complete control), read-out: Plant response rating, Foxtail, Giant): 0% | pest or weed control at 500 g/ha ([4]; pre-emergence, Preemergence, scale 0 to 100 (0 no effect, 100 complete control), read-out: Foxtail, Giant plant response rating): 0% | pest or weed control at 125 g/ha ([5]; post-emergence, Postemergence, scale 0 to 100 (0 no effect, 100 complete control), read-out: Velvetleaf plant response rating): 20% | pest or weed control at 500 g/ha ([5]; post-emergence, Postemergence, scale 0 to 100, read-out: Plant response rating, Velvetleaf): 50% | pest or weed control at 125 g/ha ([5]; pre-emergence, Preemergence, scale 0 to 100 (0 no effect, 100 complete control), read-out: Plant response rating, Velvetleaf): 0% | pest or weed control at 500 g/ha ([5]; pre-emergence, Preemergence, scale 0 to 100 (0 no effect, 100 complete control), read-out: Velvetleaf plant response rating): 40% | pest or weed control at 125 g/ha ([6]; post-emergence, Postemergence, scale 0 to 100 (0 no effect, 100 complete control), read-out: Crabgrass plant response rating): 0% | pest or weed control at 500 g/ha ([6]; post-emergence, Postemergence, scale 0 to 100, read-out: Plant response rating, Crabgrass): 0% | pest or weed control at 125 g/ha ([6]; pre-emergence, Preemergence, scale 0 to 100 (0 no effect, 100 complete control), read-out: Plant response rating, Crabgrass): 0% | pest or weed control at 500 g/ha ([6]; pre-emergence, Preemergence, scale 0 to 100 (0 no effect, 100 complete control), read-out: Crabgrass plant response rating): 0% | plant injury at 125 g/ha ([7]; post-emergence, Postemergence, scale 0 to 100 (0 no effect, 100 complete control), read-out: Wheat plant response rating): 0% | plant injury at 500 g/ha ([7]; post-emergence, Postemergence, scale 0 to 100, read-out: Plant response rating, Wheat): 0% | plant injury at 125 g/ha ([7]; pre-emergence, Preemergence, scale 0 to 100 (0 no effect, 100 complete control), read-out: Plant response rating, Wheat): 0% | plant injury at 500 g/ha ([7]; pre-emergence, Preemergence, scale 0 to 100 (0 no effect, 100 complete control), read-out: Wheat plant response rating): 0% | pest or weed control at 125 g/ha ([8]; post-emergence, Postemergence, scale 0 to 100 (0 no effect, 100 complete control), read-out: Surinam Grass plant response rating): 0% | pest or weed control at 500 g/ha ([8]; post-emergence, Postemergence, scale 0 to 100, read-out: Plant response rating, Surinam Grass): 0% | pest or weed control at 125 g/ha ([8]; pre-emergence, Preemergence, scale 0 to 100 (0 no effect, 100 complete control), read-out: Plant response rating, Surinam Grass): 0% | pest or weed control at 500 g/ha ([8]; pre-emergence, Preemergence, scale 0 to 100 (0 no effect, 100 complete control), read-out: Surinam Grass plant response rating): 0% | pest or weed control at 125 g/ha ([9]; post-emergence, Postemergence, scale 0 to 100 (0 no effect, 100 complete control), read-out: Barnyardgrass plant response rating): 0% | pest or weed control at 500 g/ha ([9]; post-emergence, Postemergence, scale 0 to 100, read-out: Plant response rating, Barnyardgrass): 0% | pest or weed control at 125 g/ha ([9]; pre-emergence, Preemergence, scale 0 to 100 (0 no effect, 100 complete control), read-out: Plant response rating, Barnyardgrass): 0% | pest or weed control at 500 g/ha ([9]; pre-emergence, Preemergence, scale 0 to 100 (0 no effect, 100 complete control), read-out: Barnyardgrass plant response rating): 0% | plant injury at 125 g/ha (corn (Zea mays); post-emergence, Postemergence, 125 g ai/ha, scale 0 to 100 (0 no effect, 100 complete control), read-out: Corn plant response rating): 0% | Corn plant response rating (crop injury, 0 = no effect, 100 = complete kill) at 500 g/ha (corn (Zea mays); post-emergence, Postemergence, 500 g ai/ha, scale 0 to 100): 0% | Corn plant response rating (crop injury, 0 = no effect, 100 = complete kill) at 125 g/ha (corn (Zea mays); pre-emergence, Preemergence, 125 g ai/ha, scale 0 to 100 (0 no effect, 100 complete control)): 0% | plant injury at 500 g/ha (corn (Zea mays); pre-emergence, Preemergence, 500 g ai/ha, scale 0 to 100 (0 no effect, 100 complete control), read-out: Corn plant response rating): 0% | pest or weed control at 125 g/ha ([10]; post-emergence, Postemergence, scale 0 to 100 (0 no effect, 100 complete control), read-out: Cocklebur plant response rating): 70% | pest or weed control at 500 g/ha ([10]; post-emergence, Postemergence, scale 0 to 100, read-out: Plant response rating, Cocklebur): 70% | pest or weed control at 125 g/ha ([10]; pre-emergence, Preemergence, scale 0 to 100 (0 no effect, 100 complete control), read-out: Plant response rating, Cocklebur): 10% | pest or weed control at 500 g/ha ([10]; pre-emergence, Preemergence, scale 0 to 100 (0 no effect, 100 complete control), read-out: Cocklebur plant response rating): 40% | pest or weed control at 125 g/ha ([11]; post-emergence, Postemergence, scale 0 to 100 (0 no effect, 100 complete control), read-out: Lambsquarters plant response rating): 70% | pest or weed control at 500 g/ha ([11]; post-emergence, Postemergence, scale 0 to 100, read-out: Plant response rating, Lambsquarters): 90% | pest or weed control at 125 g/ha ([11]; pre-emergence, Preemergence, scale 0 to 100 (0 no effect, 100 complete control), read-out: Plant response rating, Lambsquarters): 10% | pest or weed control at 500 g/ha ([11]; pre-emergence, Preemergence, scale 0 to 100 (0 no effect, 100 complete control), read-out: Lambsquarters plant response rating): 60% | plant injury at 1000 g/ha (rice (Oryza sativa)): 0% | pest or weed control at 1000 g/ha [12]: 0% | pest or weed control at 1000 g/ha [13]: 80% | pest or weed control at 1000 g/ha [14]: 0%
